Laboratory results reported in patent US20130315843A1, “COMPOSITION FOR REDUCTION OF TRPA1 AND TRPV1 SENSATIONS” (priority 2012, published 2013).
Values belong to the molecule of their own block, whether it stands above or below them.

Tests used:
human TRPV1 [1] = target: T1, human TRPV1 (Homo sapiens, UniProt Q8NER1); test: FLIPR Ca2+ assay, reduction of hydrogen peroxide activation of TRPV1; format: cell-based; design: expressed in transfected cells; settings: for % Reduction of Hydrogen Peroxide TRPV1 Activation / inhibition at 400 µM: antagonist 400 μM against 500 μM hydrogen peroxide; for Ca++ counts: with compound; for inhibition at 100 µM: antagonist 100 μM against 500 μM hydrogen peroxide
Description: (§1) Cells were detached with addition of 10 ml of PBS (phosphate buffered saline) by hand shaking gently. Cells were transferred to a 50 ml tube and centrifuged at 850 rpm for 3 minutes to remove PBS.
The pelleted cells were re-suspended in 10 ml assay buffer and 90 μl aliquots (˜50,000 cells) per well delivered to a 96-well assay plate containing 10 μl of test compounds (1 mM in assay buffer, […]) or buffer control and incubated at room temperature for 30 minutes.

human TRPV1 [2] = target: T1, human TRPV1; test: FLIPR Ca2+ assay, reduction of capsaicin activation of TRPV1; format: cell-based; design: expressed in transfected cells; settings: for Ca++ counts: with compound
Description: as §1
(§2) The pelleted cells were re-suspended in 10 ml assay buffer and 90 μl aliquots (˜50,000 cells) per well delivered to a 96-well assay plate containing 10 μl of test compounds ([…]) or buffer control and incubated at room temperature for 30 minutes.

human TRPA1 = human TRPA1 (Homo sapiens, UniProt O75762); test: FLIPR Ca2+ assay, reduction of hydrogen peroxide activation of TRPA1; format: cell-based; design: expressed in transfected cells
Description: After centrifugation, a pellet of cells was formed in the bottom of the tube separating them from the supernatant solution.
as §2

[3] = Trained sensory panel, burn sensation after brushing with menthol dentifrice; format: in vivo, human; design: key: 0 = no burning to 60 = highest intensity; 7.5 difference = significant; settings: scale 0-60
Description: For EXAMPLES 6 and 7 sensory evaluation studies of menthol and hydrogen peroxide activity were conducted using a methodology patterned after the techniques described in M. C. Meilgaard, et al., Sensory Evaluation Techniques, 4th Ed. (2007). In one study, a panel of 8-15 trained sensory experts evaluated the menthol or peroxide sensations experienced after brushing with a dentifrice containing the menthol or hydrogen peroxide and the respective TRPA1 or TRPV1 antagonists. Panelists brushed teeth with 1.5 grams of a dentifrice (containing coolant) or control (no coolant) and then expectorated. After brush expectoration, panelists evaluated the burn intensity, assigning a number between 0 (no burning) to 60 ([…]). After rinse expectoration, panelists evaluated burning intensity according to the same 0 to 60 scale. Evaluations were conducted at 5, 15, 30, 45, 60 minute, etc. time points. At each evaluation, panelists were instructed to breathe in through pursed lips and evaluate overall burning sensation. In this test, a numerical score difference from the control of 7.5 indicates user significant differences or definite reduction in burning at the specified time point. Measures between 4.0 to 7.5 indicate a noticeable trend in the specified parameter, which is not statistically significant, but noticeable.
For EXAMPLE 6 (TABLES 8 and 9), a panel of 14 trained sensory experts evaluated the sensory profile experienced after brushing with the dentifrice sample formulations shown in TABLES 6 and 7 containing high levels of menthol followed by rinsing with water. Panelists brushed teeth with 1.5 grams of a test dentifrice (containing high menthol levels) or control (no menthol) for 36 seconds and then expectorated. The dentifrice sample formulations (control and high L-Menthol) are shown below in TABLE 6 (with peppermint flavor) and TABLE 7 (with spearmint flavor). The dentifrices were made using conventional methods and are shown below with component amounts in weight % of total composition. […]
For TABLE 10 all the Samples had the same formulation as Sample E from TABLE 6, except for the Control which lacked menthol. After brushing or mouthwash expectoration, panelists evaluated the burning sensation, assigning a number between 0 (no sensation) to 60 (highest intensity sensation). Evaluations were conducted at 5, 10, 20 and 30 minute time points, following expectoration. At each evaluation, panelists were instructed to breathe in through pursed lips and evaluate overall sensation. In this test, a numerical score of 7.5 indicates a significant user noticeable sensation. Differences less than 7.5, but greater than 5.0 indicate the trending of the data on a specific attribute.

human TRPA1, sequence (O75762 whole entry): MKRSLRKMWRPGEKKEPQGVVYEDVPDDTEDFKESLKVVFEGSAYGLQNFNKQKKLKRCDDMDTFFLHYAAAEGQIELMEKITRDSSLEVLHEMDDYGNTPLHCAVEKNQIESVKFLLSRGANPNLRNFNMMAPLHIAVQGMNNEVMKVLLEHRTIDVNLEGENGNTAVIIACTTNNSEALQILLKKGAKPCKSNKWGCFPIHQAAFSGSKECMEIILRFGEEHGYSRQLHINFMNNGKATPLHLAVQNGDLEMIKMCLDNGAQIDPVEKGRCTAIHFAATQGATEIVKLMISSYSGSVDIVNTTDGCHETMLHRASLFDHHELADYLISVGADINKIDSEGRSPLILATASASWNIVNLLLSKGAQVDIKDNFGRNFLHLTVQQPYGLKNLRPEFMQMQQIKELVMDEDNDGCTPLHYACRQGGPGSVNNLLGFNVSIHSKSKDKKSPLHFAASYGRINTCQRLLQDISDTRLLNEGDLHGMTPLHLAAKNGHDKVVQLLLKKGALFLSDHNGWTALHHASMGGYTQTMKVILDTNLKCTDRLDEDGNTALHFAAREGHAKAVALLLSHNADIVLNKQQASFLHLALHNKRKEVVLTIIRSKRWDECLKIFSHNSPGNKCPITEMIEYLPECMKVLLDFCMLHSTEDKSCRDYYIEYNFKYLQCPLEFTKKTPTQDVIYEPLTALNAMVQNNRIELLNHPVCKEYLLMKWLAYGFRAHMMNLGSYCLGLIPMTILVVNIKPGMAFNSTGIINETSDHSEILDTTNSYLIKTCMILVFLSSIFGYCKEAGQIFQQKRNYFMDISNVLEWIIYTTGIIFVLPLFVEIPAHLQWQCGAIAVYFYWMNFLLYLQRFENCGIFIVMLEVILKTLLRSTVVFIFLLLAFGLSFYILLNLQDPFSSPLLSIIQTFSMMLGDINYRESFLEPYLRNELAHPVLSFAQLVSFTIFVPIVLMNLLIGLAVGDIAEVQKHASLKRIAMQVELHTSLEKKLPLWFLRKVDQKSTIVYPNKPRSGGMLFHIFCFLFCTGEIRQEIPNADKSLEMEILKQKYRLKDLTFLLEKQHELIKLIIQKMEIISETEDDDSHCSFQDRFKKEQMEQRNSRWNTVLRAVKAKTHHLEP
T1 sequence (Q8NER1 whole entry): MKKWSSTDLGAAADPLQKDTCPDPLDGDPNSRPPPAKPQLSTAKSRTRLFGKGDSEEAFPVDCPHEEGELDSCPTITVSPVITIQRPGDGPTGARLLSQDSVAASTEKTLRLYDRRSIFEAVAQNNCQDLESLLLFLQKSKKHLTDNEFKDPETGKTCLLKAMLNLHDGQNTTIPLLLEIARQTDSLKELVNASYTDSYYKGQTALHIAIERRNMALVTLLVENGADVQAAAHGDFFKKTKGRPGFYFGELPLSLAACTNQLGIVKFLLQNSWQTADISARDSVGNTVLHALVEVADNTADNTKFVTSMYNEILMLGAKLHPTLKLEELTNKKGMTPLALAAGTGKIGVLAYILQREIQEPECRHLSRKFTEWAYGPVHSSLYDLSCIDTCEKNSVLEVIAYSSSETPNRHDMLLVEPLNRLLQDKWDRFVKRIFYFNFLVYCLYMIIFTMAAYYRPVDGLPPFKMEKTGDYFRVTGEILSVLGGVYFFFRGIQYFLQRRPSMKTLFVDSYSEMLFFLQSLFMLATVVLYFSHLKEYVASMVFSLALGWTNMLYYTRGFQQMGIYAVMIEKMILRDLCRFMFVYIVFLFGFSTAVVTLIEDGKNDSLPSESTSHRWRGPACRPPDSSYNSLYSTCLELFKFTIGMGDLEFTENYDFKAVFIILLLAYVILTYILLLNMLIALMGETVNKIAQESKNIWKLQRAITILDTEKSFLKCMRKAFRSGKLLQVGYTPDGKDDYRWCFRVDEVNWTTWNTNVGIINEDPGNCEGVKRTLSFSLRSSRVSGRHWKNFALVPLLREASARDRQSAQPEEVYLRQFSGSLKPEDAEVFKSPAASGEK

SMILES: CC/C=C/CC1CCCC1=O (stereo not drawn) [Jasminone B]
% inhibition of TRPV1 activation by 500 uM H2O2 (human TRPV1 [1]; Dose 4000): 51%
% Reduction of Hydrogen Peroxide TRPV1 Activation (human TRPV1 [1]): 51%
Ca++ counts (human TRPV1 [1]; Dose 4000, 500 uM H2O2): 903
% inhibition of TRPV1 activation by 350 nM Capsaicin (human TRPV1 [2]; Dose 4000): 2%
Ca++ counts (human TRPV1 [2]; Dose 4000, 350 nM Capsaicin): 11635

SMILES: CC1=CC(=O)C(C(C)C)CC1 [L-Piperiton]
% inhibition of TRPV1 activation by 500 uM H2O2 (human TRPV1 [1]; Dose 1000): 58%
Ca++ counts (human TRPV1 [1]; Dose 1000, 500 uM H2O2): 361
% inhibition of TRPV1 activation by 350 nM Capsaicin (human TRPV1 [2]; Dose 1000): 12%
Ca++ counts (human TRPV1 [2]; Dose 1000, 350 nM Capsaicin): 13225

inhibition at 100 µM (human TRPV1 [1]): 60%
Ca++ counts (human TRPV1 [1]; Dose 1000, 500 uM H2O2): 451
Ca++ counts (human TRPV1 [2]; Dose 1000, 350 nM Capsaicin): 15329
SMILES: COC(=O)c1ccccc1N(C)C [Methyl N,N-Dimethylanthranilate]

SMILES: CCCCCC=CCC1CCCC1=O (stereo not drawn) [Octenyl Cyclopentanone]
% inhibition of TRPV1 activation by 500 uM H2O2 (human TRPV1 [1]; Dose 4000): 50%
% Reduction of Hydrogen Peroxide TRPV1 Activation (human TRPV1 [1]): 50%
Ca++ counts (human TRPV1 [1]; Dose 4000, 500 uM H2O2): 922
% inhibition of TRPV1 activation by 350 nM Capsaicin (human TRPV1 [2]; Dose 4000): 1%
Ca++ counts (human TRPV1 [2]; Dose 4000, 350 nM Capsaicin): 9378

SMILES: CC(=O)OC1=C(C)OC(C)C1=O (stereo not drawn) [Strawberry Furanone Acetate, 4-Acetoxy-2,5-dimethyl-3(2H)-furanone]
reduction of hydrogen peroxide activation of TRPA1, in words (human TRPA1): reduced hydrogen peroxide activation of TRPA1
Block of hydrogen peroxide activation of TRPA1 (human TRPA1; 400 μM antagonist vs 500 μM hydrogen peroxide): BLOCK ONLY H2O2/TRPA1
inhibition at 400 µM (human TRPA1; antagonist 400 μM against 200 μM hydrogen peroxide, read-out: % Reduction of Hydrogen Peroxide TRPA1 Activation): 63%
reduction of hydrogen peroxide activation of TRPV1, in words (human TRPV1 [1]): hydrogen peroxide reduction of TRPV1
inhibition at 100 µM (human TRPV1 [1]): 60%
Ca++ counts (human TRPV1 [1]; Dose 1000, 500 uM H2O2): 451
Ca++ counts (human TRPV1 [2]; Dose 1000, 350 nM Capsaicin): 14578

inhibition at 400 µM (human TRPV1 [1]): 53%
Ca++ counts (human TRPV1 [1]; Dose 4000, 500 uM H2O2): 866
Ca++ counts (human TRPV1 [2]; Dose 4000, 350 nM Capsaicin): 11041
SMILES: CC(C)=CC1CC(C)CCO1 (stereo not drawn) [Tetrahydro-4-methyl-2-(2-methyl-1-propenyl)-2H pyran]

inhibition at 400 µM (human TRPV1 [1]): 63%
Ca++ counts (human TRPV1 [1]; Dose 4000, 500 uM H2O2): 715
Ca++ counts (human TRPV1 [2]; Dose 4000, 350 nM Capsaicin): 11278
SMILES: CCCN(CCC)CCC [Tripropylamine]

SMILES: CCCCCCCC1CC(C)OC1=O (stereo not drawn) [α-heptyl-γ-valerolactone]
Burning Sensation Rating ([3]; 5 Min After Rinse, dentifrice Sample E (1% menthol) with antagonist levels as E42): 13.8
Burning Sensation Rating ([3]; 10 Min After Rinse, dentifrice Sample E (1% menthol) with antagonist levels as E42): 1.3
Burning Sensation Rating ([3]; 20 Min After Rinse, dentifrice Sample E (1% menthol) with antagonist levels as E42): 0.0
Burning Sensation Rating ([3]; 30 Min After Rinse, dentifrice Sample E (1% menthol) with antagonist levels as E42): 0.0
Burning Sensation Rating ([3]; After Expectoration, dentifrice Sample E (1% added menthol) with Apritone 200 ppm, Dihydrojasmone 6 ppm, Isobornyl Isobutyrate 100 ppm, α-heptyl-γ-valerolactone 100 ppm as named): 25.4
Burning Sensation Rating ([3]; After Rinse, dentifrice Sample E (1% menthol) with antagonist levels as E42): 21.5
